Results: patent US7763446B2, “Chimeric DNA-binding proteins” (Massachusetts Institute of Technology, priority 1994, dated 2010)

Tests used:
[1] = system: ZFHD1-FKBPx3 with FKBPx3-VP16 or FKBPx3-p65, pZHWTx8SVSEAP reporter; experiment: FK1012-dependent SEAP transcriptional activation in 293 cells; type: cell-based; conditions: 24 hour incubation
Procedure: 293 cells were grown in D-MEM (Gibco BRL) supplemented with 10% Bovine Calf Serum. Cells in 35 mm dishes (2.5×10^5 cells/dish) were transiently transfected with use of calcium phosphate precipitation (Ausubel et. al., 1994). Each dish received 375 ng pZHWTx8SVSEAP; 12 ng pCGNNZFHD1-FKBPx3 and 25 ng pCGNNFKBPx3-VP16 or pCGNNFKBPx3-p65. Following transfection, 2 ml fresh media was added and supplemented with FK1012 to the desired concentration. After a 24 hour incubation […] aliquot of media was removed and assayed for SEAP activity as described (Spencer et. al., 1993).

[2] = hGH clearance after bolus administration; type: in vivo; conditions: i.p. or i.v.
Description: Therefore, the observed hGH secretion in this example appears to be a sustained phenomenon.

[3] = system: ZFHD1-FKBPx3 and FRB-p65 fusion proteins, hGH reporter linked to ZFHD1 binding sites; experiment: Rapamycin-dependent hGH expression in transfected HT1080 cell culture; type: cell-based; conditions: HT1080 cells with three constructs
Procedure: Using the approach described in Example 6, constructs were prepared encoding the ZFHD1-FKBPx3 fusion protein, a second fusion protein containing the FKBP:rapaymcin binding (“FRB”) region of FRAP linked to the p65 activation domain, and a reporter cassette containing a gene encoding human growth hormone linked to multiple ZFHD1 binding sites. The natural product, rapamycin, forms a ternary complex with FKBP12 and FRAP. Similarly, rapamycin is capable of binding to one or more of the FKBP domains and FRAP FRB domains of the fusion proteins.

[4] = system: ZFHD1-FKBPx3 and FRB-p65 fusion proteins, hGH target gene in implanted cells; experiment: Rapamycin-dependent serum hGH in nu/nu mice implanted with transfected HT1080 cells; type: in vivo; conditions: rapamycin i.v. 10-10,000 μg/kg, serum 17 hours after administration
Procedure: Human cells (2×10^6) transfected with plasmids encoding transcription factors ZFHD1-FKBPx3 and FRB-p65 and a target gene directing the expression of human growth hormone (hGH) were injected into the skeletal muscles of nu/nu mice. Mice were treated with the indicated concentration of rapamycin by tail vein injection. After 17 hours, serum hGH levels were determined by ELISA. Each point represents X±SEM (n=at least 5 per point). Control animals received either engineered cells without drug or drug (10^3 or 10^4 μg/kg) without engineered cells.
2×10^6 cells from the transfected HT1080 culture were administered to nu/nu mice by intramuscular injection. Following cell implantation, rapamycin was administered i.v. over a range of doses (from 10-10,000 μg/kg). Serum samples were collected from the mice 17 hours after rapamycin administration. Control groups consisted of mice that received no cells but 1.0 mg/kg rapamycin (i.v.) as well as mice that received the cells but no rapamycin.
Neither control group produced measurable hGH. The limit of detection of the hGH assay is 0.0125 ng/ml.

## CO[C@H]1C[C@@H](C)C/C(C)=C/[C@@H](CCOC(=O)NCc2ccc(CNC(=O)OCC[C@@H]3/C=C(\C)C[C@H](C)C[C@H](OC)C4O[C@@](O)(C(=O)C(=O)N5CCCC[C@H]5C(=O)OC(/C(C)=C/[C@@H]5CC[C@@H](O)[C@H](OC)C5)[C@H](C)[C@@H](O)CC3=O)[C@H](C)C[C@H]4OC)cc2)C(=O)C[C@H](O)[C@@H](C)C(/C(C)=C/[C@@H]2CC[C@@H](O)[C@H](OC)C2)OC(=O)[C@@H]2CCCCN2C(=O)C(=O)[C@]2(O)OC1[C@H](OC)C[C@H]2C (some centres unmarked) [FK1012]
[1]
  FK1012 concentration at peak activation: 100 nM

## hGH: human growth hormone, reporter gene product; bolus clearance stated
[2]
  hGH clearance half-life: less than 2 minutes
  time to undetectable hGH levels: ≤ 30 min

## rapamycin
[3]
  rapamycin-dependent expression of the hGH gene in cell culture: rapamycin-dependent expression of the hGH gene
[4]
  expression of hGH (circulating hGH): Dose-responsive expression of hGH
